Experimental data taken from patent US11331369B2, “Endoparasitic depsipeptides” (Zoetis Services LLC, priority 2017, dated 2022).

Key:
[1] = tested on: 4th stage larvae (L4) of Dirofilaria immitis; assay: Dirofilaria immitis, L4 Stage (DiL4) In Vitro Assay; format: cell-based; conditions: Dirofilaria immitis, 72 h, read-out: DiL4 Minimum Effective Dose (MED), approximately 72 hours incubation; L4 larvae assessed for survival or paralysis
[2] = tested on: microfilariae of Dirofilaria immitis; assay: Dirofilaria immitis, Microfilaria (DiMF) In vitro Assay; format: cell-based; conditions: 72 h, read-out: DiMF Minimum Effective Dose (MED), approximately 72 hours incubation, microfilariae assessed for survival or paralysis

## CCOc1cn(Cc2ccc(C[C@H]3OC(=O)[C@H](CC(C)C)N(C)C(=O)[C@@H](C)OC(=O)[C@H](CC(C)C)N(C)C(=O)[C@@H](Cc4ccc(Cn5ncc(OCC)c5C)cc4)OC(=O)[C@H](CC(C)C)N(C)C(=O)[C@@H](C)OC(=O)[C@H](CC(C)C)N(C)C3=O)cc2)nc1C [Example 1a-38, (3S,6R,9S,12R,15S,18R,21S,24R)-6-[[4-[(4-ethoxy-3-methyl-pyrazol-1-yl)methyl]phenyl]methyl]-18-[[4-[(4-ethoxy-5-methyl-pyrazol-1-yl)methyl]phenyl]methyl]-3,9,15,21-tetraisobutyl-4,10,12,16,22,24-hexamethyl-1,7,13,19-tetraoxa-4,10,16,22-tetrazacyclotetracosane-2,5,8,11,14,17,20,23-octaone]
[1]
  minimal effective concentration: 0.001 to 0.01 µM
[2]
  minimal effective concentration: 0.001 to 0.01 µM

## CC(C)C[C@H]1C(=O)O[C@H](Cc2ccc(Cn3cc(Oc4ccccn4)cn3)cc2)C(=O)N(C)[C@@H](CC(C)C)C(=O)O[C@H](C)C(=O)N(C)[C@@H](CC(C)C)C(=O)O[C@H](Cc2ccc(Cn3cc(Oc4ccccn4)cn3)cc2)C(=O)N(C)[C@@H](CC(C)C)C(=O)O[C@H](C)C(=O)N1C [Example 1b-175, (3S,6R,9S,12R,15S,18R,21S,24R)-3,9,15,21-tetraisobutyl-4,6,10,16,18,22-hexamethyl-12,24-bis(4-((4-(pyridin-2-yloxy)-1H-pyrazol-1-yl)methyl)benzyl)-1,7,13,19-tetraoxa-4,10,16,22-tetraazacyclotetracosan-2,5,8,11,14,17,20,23-octaone]
[1]
  minimal effective concentration: 0.001 to 0.01 µM
[2]
  minimal effective concentration: 0.001 to 0.01 µM

## CC(C)C[C@H]1C(=O)O[C@H](Cc2ccc(Cn3cc(Cl)cn3)cc2)C(=O)N(C)[C@@H](CC(C)C)C(=O)O[C@H](C)C(=O)N(C)[C@@H](CC(C)C)C(=O)O[C@H](Cc2ccccc2)C(=O)N(C)[C@@H](CC(C)C)C(=O)O[C@H](C)C(=O)N1C [Example 2-25, (3S,6R,9S,12R,15S,18R,21S,24R)-6-benzyl-18-(4-((4-chloro-1H-pyrazol-1-yl)methyl)benzyl)-3,9,15,21-tetraisobutyl-4,10,12,16,22,24-hexamethyl-1,7,13,19-tetraoxa-4,10,16,22-tetraazacyclotetracosan-2,5,8,11,14,17,20,23-octaone]
[1]
  minimal effective concentration: 0.0001 to 0.001 µM
[2]
  minimal effective concentration: 0.001 to 0.01 µM

## CC(C)C[C@H]1C(=O)O[C@H](Cc2ccc(Cn3cc(OCC(F)(F)F)cn3)cc2)C(=O)N(C)[C@@H](CC(C)C)C(=O)O[C@H](C)C(=O)N(C)[C@@H](CC(C)C)C(=O)O[C@H](Cc2ccc(Cn3cc(OCC(F)(F)F)cn3)cc2)C(=O)N(C)[C@@H](CC(C)C)C(=O)O[C@H](C)C(=O)N1C [Example 1b-150, (3S,6R,9S,12R,15S,18R,21S,24R)-3,9,15,21-tetraisobutyl-4,6,10,16,18,22-hexamethyl-12,24-bis(4-((4-(2,2,2-trifluoroethoxy)-1H-pyrazol-1-yl)methyl)benzyl)-1,7,13,19-tetraoxa-4,10,16,22-tetraazacyclotetracosan-2,5,8,11,14,17,20,23-octaone]
[1]
  minimal effective concentration: 0.0001 to 0.001 µM
[2]
  minimal effective concentration: 0.001 to 0.01 µM

## CC(C)C[C@H]1C(=O)O[C@H](Cc2ccc(Cn3nc(C#N)cc3C#N)cc2)C(=O)N(C)[C@@H](CC(C)C)C(=O)O[C@H](C)C(=O)N(C)[C@@H](CC(C)C)C(=O)O[C@H](Cc2ccccc2)C(=O)N(C)[C@@H](CC(C)C)C(=O)O[C@H](C)C(=O)N1C [Example 2-62, 1-(4-(((2R,5S,8R,11S,14R,17S,20R,23S)-14-benzyl-5,11,17,23-tetraisobutyl-4,8,10,16,20,22-hexamethyl-3,6,9,12,15,18,21,24-octaoxo-1,7,13,19-tetraoxa-4,10,16,22-tetraazacyclotetracosan-2-yl)methyl)benzyl)-1H-pyrazole-3,5-dicarbonitrile]
[1]
  minimal effective concentration: 0.0001 to 0.001 µM
[2]
  minimal effective concentration: 0.001 to 0.01 µM

## CC(C)Cc1ccnn1Cc1ccc(C[C@H]2OC(=O)[C@H](CC(C)C)N(C)C(=O)[C@@H](C)OC(=O)[C@H](CC(C)C)N(C)C(=O)[C@@H](Cc3ccc(Cn4nccc4CC(C)C)cc3)OC(=O)[C@H](CC(C)C)N(C)C(=O)[C@@H](C)OC(=O)[C@H](CC(C)C)N(C)C2=O)cc1 [Example 1b-209, (3S,6R,9S,12R,15S,18R,21S,24R)-3,9,15,21-tetraisobutyl-6,18-bis(4-((5-isobutyl-1H-pyrazol-1-yl)methyl)benzyl)-4,10,12,16, 22,24-hexamethyl-1,7,13,19-tetraoxa-4,10,16,22-tetraazacyclotetracosan-2,5,8,11,14,17,20,23-octaone]
[1]
  minimal effective concentration: 0.0001 to 0.001 µM
[2]
  minimal effective concentration: 0.01 to 0.1 µM

## CC(C)COc1cnn(Cc2ccc(C[C@H]3OC(=O)[C@H](CC(C)C)N(C)C(=O)[C@@H](C)OC(=O)[C@H](CC(C)C)N(C)C(=O)[C@@H](Cc4ccc(Cn5cc(OCC(C)C)cn5)cc4)OC(=O)[C@H](CC(C)C)N(C)C(=O)[C@@H](C)OC(=O)[C@H](CC(C)C)N(C)C3=O)cc2)c1 [Example 1b-172, (3S,6R,9S,12R,15S,18R,21S,24R)-6,18-bis(4-((4-isobutoxy-1H-pyrazol-1-yl)methyl)benzyl)-3,9,15,21-tetraisobutyl-4,10,12,16,22,24-hexamethyl-1,7,13,19-tetraoxa-4,10,16,22-tetraazacyclotetracosan-2,5,8,11,14,17,20,23-octaone]
[1]
  minimal effective concentration: 0.001 to 0.01 µM
[2]
  minimal effective concentration: 0.01 to 0.1 µM

## CC(C)C[C@H]1C(=O)O[C@H](Cc2ccc(Cn3cc(Oc4nccs4)cn3)cc2)C(=O)N(C)[C@@H](CC(C)C)C(=O)O[C@H](C)C(=O)N(C)[C@@H](CC(C)C)C(=O)O[C@H](Cc2ccc(Cn3cc(Oc4nccs4)cn3)cc2)C(=O)N(C)[C@@H](CC(C)C)C(=O)O[C@H](C)C(=O)N1C [Example 1b-174, (3S,6R,9S,12R,15S,18R,21S,24R)-3,9,15,21-tetraisobutyl-4,6,10,16,18,22-hexamethyl-12,24-bis(4-((4-(thiazol-2-yloxy)-1H-pyrazol-1-yl)methyl)benzyl)-1,7,13,19-tetraoxa-4,10,16,22-tetraazacyclotetracosan-2,5,8,11,14,17,20,23-octaone]
[1]
  minimal effective concentration: 0.001 to 0.01 µM
[2]
  minimal effective concentration: 0.001 to 0.01 µM

## CC(C)C[C@H]1C(=O)O[C@H](Cc2ccc(Cn3nccc3C3CCCC3)cc2)C(=O)N(C)[C@@H](CC(C)C)C(=O)O[C@H](C)C(=O)N(C)[C@@H](CC(C)C)C(=O)O[C@H](Cc2ccc(Cn3nccc3C3CCCC3)cc2)C(=O)N(C)[C@@H](CC(C)C)C(=O)O[C@H](C)C(=O)N1C [Example 1b-154, (3S,6R,9S,12R,15S,18R,21S,24R)-6,18-bis(4-((5-cyclopentyl-1H-pyrazol-1-yl)methyl)benzyl)-3,9,15,21-tetraisobutyl-4,10,12,16,22,24-hexamethyl-1,7,13,19-tetraoxa-4,10,16,22-tetraazacyclotetracosan-2,5,8,11,14,17,20,23-octaone]
[1]
  minimal effective concentration: ≤ 0.0001 µM
[2]
  minimal effective concentration: 0.001 to 0.01 µM

## CCCc1ccnn1Cc1ccc(C[C@H]2OC(=O)[C@H](CC(C)C)N(C)C(=O)[C@@H](C)OC(=O)[C@H](CC(C)C)N(C)C(=O)[C@@H](Cc3ccc(Cn4nccc4CCC)cc3)OC(=O)[C@H](CC(C)C)N(C)C(=O)[C@@H](C)OC(=O)[C@H](CC(C)C)N(C)C2=O)cc1 [Example 1b-205, (3S,6R,9S,12R,15S,18R,21S,24R)-3,9,15,21-tetraisobutyl-4,6,10,16,18,22-hexamethyl-12,24-bis(4-((5-propyl-1H-pyrazol-1-yl)methyl)benzyl)-1,7,13,19-tetraoxa-4,10,16,22-tetraazacyclotetracosan-2,5,8,11,14,17,20,23-octaone]
[1]
  minimal effective concentration: 0.0001 to 0.001 µM
[2]
  minimal effective concentration: 0.001 to 0.01 µM

## CC(C)C[C@H]1C(=O)O[C@H](Cc2ccc(Cn3nccc3-c3ccccc3)cc2)C(=O)N(C)[C@@H](CC(C)C)C(=O)O[C@H](C)C(=O)N(C)[C@@H](CC(C)C)C(=O)O[C@H](Cc2ccc(Cn3nc(C#N)cc3C#N)cc2)C(=O)N(C)[C@@H](CC(C)C)C(=O)O[C@H](C)C(=O)N1C [Example 1a-12, 1-(4-(((2R,5S,8R,11S,14R,17S,20R,23S)-5,11,17,23-tetraisobutyl-4,8,10,16,20,22-hexamethyl-3,6,9,12,15,18,21,24-octaoxo-14-(4-((5-phenyl-1H-pyrazol-1-yl)methyl)benzyl)-1,7,13,19-tetraoxa-4,10,16,22-tetraazacyclotetracosan-2-yl)methyl)benzyl)-1H-pyrazole-3,5-dicarbonitrile]
[1]
  minimal effective concentration: 0.0001 to 0.001 µM
[2]
  minimal effective concentration: 0.01 to 0.1 µM

## CC(C)C[C@H]1C(=O)O[C@H](Cc2ccc(Cn3cc(C#CC4CC4)cn3)cc2)C(=O)N(C)[C@@H](CC(C)C)C(=O)O[C@H](C)C(=O)N(C)[C@@H](CC(C)C)C(=O)O[C@H](Cc2ccc(Cn3cc(C#CC4CC4)cn3)cc2)C(=O)N(C)[C@@H](CC(C)C)C(=O)O[C@H](C)C(=O)N1C [Example 1b-113, (3S,6R,9S,12R,15S,18R,21S,24R)-6,18-bis(4-((4-(cyclopropylethynyl)-1H-pyrazol-1-yl)methyl)benzyl)-3,9,15,21-tetraisobutyl-4, 10,12,16,22,24-hexamethyl-1,7,13,19-tetraoxa-4,10,16,22-tetraazacyclotetracosan-2,5,8,11,14,17,20,23-octaone]
[1]
  minimal effective concentration: 0.0001 to 0.001 µM
[2]
  minimal effective concentration: 0.01 to 0.1 µM

## CC(C)C[C@H]1C(=O)O[C@H](Cc2ccc(Cn3ncnc3-c3ccc(Cl)cc3)cc2)C(=O)N(C)[C@@H](CC(C)C)C(=O)O[C@H](C)C(=O)N(C)[C@@H](CC(C)C)C(=O)O[C@H](Cc2ccc(Cn3ncnc3-c3ccc(Cl)cc3)cc2)C(=O)N(C)[C@@H](CC(C)C)C(=O)O[C@H](C)C(=O)N1C [Example 9-58, (3S,6R,9S,12R,15S,18R,21S,24R)-6,18-bis(4-((5-(4-chlorophenyl)-1H-1,2,4-triazol-1-yl)methyl)benzyl)-3,9,15,21-tetraisobutyl-4,10,12,16,22,24-hexamethyl-1,7,13,19-tetraoxa-4,10,16,22-tetraazacyclotetracosan-2,5,8,11,14,17,20,23-octaone]
[1]
  minimal effective concentration: 0.001 to 0.01 µM
[2]
  minimal effective concentration: 0.01 to 0.1 µM
